Test results: PubChem BioAssay (NCI)
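The compound was tested at five concentrations on cells cultured in 96-well plates, with a 48-hour exposure period. The concentration for 50% growth inhibition is given as GI50. TGI denotes the concentration required for complete inhibition of growth.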

How the values were obtained:
Experiment in all cases: NCI tumour cell line growth inhibition, 48 h
IGROV1 ovarian = system: IGROV1 ovarian
SNB-19 CNS = system: SNB-19 CNS
SW-620 colon = system: SW-620 colon
OVCAR-4 ovarian = system: OVCAR-4 ovarian
OVCAR-5 ovarian = system: OVCAR-5 ovarian
HCT-116 colon = system: HCT-116 colon
HS 578T breast = system: HS 578T breast
PC-3 prostate = system: PC-3 prostate
SK-MEL-5 melanoma = system: SK-MEL-5 melanoma
UACC-257 melanoma = system: UACC-257 melanoma
KM12 colon = system: KM12 colon
NCI/ADR-RES ovarian = system: NCI/ADR-RES ovarian
RPMI-8226 leukemia = system: RPMI-8226 leukemia
NCI-H23 lung = system: NCI-H23 lung
M14 melanoma = system: M14 melanoma
K-562 leukemia = system: K-562 leukemia
NCI-H226 lung = system: NCI-H226 lung
T-47D breast = system: T-47D breast
DU-145 prostate = system: DU-145 prostate
CAKI-1 renal = system: CAKI-1 renal
HCT-15 colon = system: HCT-15 colon
BT-549 breast = system: BT-549 breast
HT29 colon = system: HT29 colon
HOP-62 NSCLC = system: HOP-62 NSCLC
SF-268 CNS = system: SF-268 CNS
SN12C renal = system: SN12C renal
NCI-H522 lung = system: NCI-H522 lung
SNB-75 CNS = system: SNB-75 CNS
OVCAR-8 ovarian = system: OVCAR-8 ovarian
CCRF-CEM leukemia = system: CCRF-CEM leukemia
SK-MEL-28 melanoma = system: SK-MEL-28 melanoma
SK-OV-3 ovarian = system: SK-OV-3 ovarian
A498 renal = system: A498 renal
NCI-H460 lung = system: NCI-H460 lung
SF-539 CNS = system: SF-539 CNS
MDA-MB-231 breast = system: MDA-MB-231 breast
OVCAR-3 ovarian = system: OVCAR-3 ovarian
MCF7 breast = system: MCF7 breast
SK-MEL-2 melanoma = system: SK-MEL-2 melanoma
COLO 205 colon = system: COLO 205 colon
A549 NSCLC = system: A549 NSCLC
MOLT-4 leukemia = system: MOLT-4 leukemia
LOX IMVI melanoma = system: LOX IMVI melanoma
U251 CNS = system: U251 CNS
UO-31 renal = system: UO-31 renal
MDA-MB-435 = system: MDA-MB-435
SF-295 CNS = system: SF-295 CNS
HL-60(TB) leukemia = system: HL-60(TB) leukemia
ACHN renal = system: ACHN renal
786-0 renal = system: 786-0 renal

Compound: O=C1C(=O)/C(=C/c2ccccc2)CCCCCC/C1=C/c1ccccc1
- GI50 (IGROV1 ovarian): 2.93 µM
- TGI (IGROV1 ovarian): 8.7 µM
- GI50 (SNB-19 CNS): 5.3 µM
- TGI (SNB-19 CNS): 20.2 µM
- GI50 (SW-620 colon): 3.21 µM
- TGI (SW-620 colon): 11.6 µM
- GI50 (OVCAR-4 ovarian): 2.78 µM
- TGI (OVCAR-4 ovarian): 8.47 µM
- GI50 (OVCAR-5 ovarian): 2.68 µM
- TGI (OVCAR-5 ovarian): 7.93 µM
- GI50 (HCT-116 colon): 1.5 µM
- TGI (HCT-116 colon): 2.82 µM
- GI50 (HS 578T breast): 8.06 µM
- TGI (HS 578T breast): > 100 µM
- GI50 (PC-3 prostate): 3.19 µM
- TGI (PC-3 prostate): 17.1 µM
- GI50 (SK-MEL-5 melanoma): 3.25 µM
- TGI (SK-MEL-5 melanoma): 12.1 µM
- GI50 (UACC-257 melanoma): 2.3 µM
- TGI (UACC-257 melanoma): 6.15 µM
- GI50 (KM12 colon): 2.7 µM
- TGI (KM12 colon): 6.4 µM
- GI50 (NCI/ADR-RES ovarian): 4.78 µM
- TGI (NCI/ADR-RES ovarian): > 100 µM
- GI50 (RPMI-8226 leukemia): 1.9 µM
- TGI (RPMI-8226 leukemia): 5.96 µM
- GI50 (NCI-H23 lung): 3.38 µM
- TGI (NCI-H23 lung): 13.7 µM
- GI50 (M14 melanoma): 2.29 µM
- TGI (M14 melanoma): 5.31 µM
- GI50 (K-562 leukemia): 2.94 µM
- TGI (K-562 leukemia): 8.77 µM
- GI50 (NCI-H226 lung): 1.76 µM
- TGI (NCI-H226 lung): 3.54 µM
- GI50 (T-47D breast): 5.09 µM
- TGI (T-47D breast): > 100 µM
- GI50 (DU-145 prostate): 3.73 µM
- TGI (DU-145 prostate): 14 µM
- GI50 (CAKI-1 renal): 3.11 µM
- TGI (CAKI-1 renal): 18.6 µM
- GI50 (HCT-15 colon): 1.68 µM
- TGI (HCT-15 colon): 3.24 µM
- GI50 (BT-549 breast): 2.33 µM
- TGI (BT-549 breast): 5 µM
- GI50 (HT29 colon): 2.04 µM
- TGI (HT29 colon): 3.74 µM
- GI50 (HOP-62 NSCLC): 3.44 µM
- TGI (HOP-62 NSCLC): 10.5 µM
- GI50 (SF-268 CNS): 2.74 µM
- TGI (SF-268 CNS): 8.28 µM
- GI50 (SN12C renal): 2.35 µM
- TGI (SN12C renal): 5.58 µM
- GI50 (NCI-H522 lung): 4.68 µM
- TGI (NCI-H522 lung): 16.3 µM
- GI50 (SNB-75 CNS): 2.86 µM
- TGI (SNB-75 CNS): 17.6 µM
- GI50 (OVCAR-8 ovarian): 3.14 µM
- TGI (OVCAR-8 ovarian): 12.7 µM
- GI50 (CCRF-CEM leukemia): 3.05 µM
- TGI (CCRF-CEM leukemia): 17.9 µM
- GI50 (SK-MEL-28 melanoma): 3.9 µM
- TGI (SK-MEL-28 melanoma): 15.4 µM
- GI50 (SK-OV-3 ovarian): 8.9 µM
- TGI (SK-OV-3 ovarian): 70.3 µM
- GI50 (A498 renal): 13.7 µM
- TGI (A498 renal): 28.4 µM
- GI50 (NCI-H460 lung): 2.43 µM
- TGI (NCI-H460 lung): 6.09 µM
- GI50 (SF-539 CNS): 1.98 µM
- TGI (SF-539 CNS): 3.95 µM
- GI50 (MDA-MB-231 breast): 2.63 µM
- TGI (MDA-MB-231 breast): 6.52 µM
- GI50 (OVCAR-3 ovarian): 1.92 µM
- TGI (OVCAR-3 ovarian): 3.63 µM
- GI50 (MCF7 breast): 3.24 µM
- TGI (MCF7 breast): 31.8 µM
- GI50 (SK-MEL-2 melanoma): 16.6 µM
- TGI (SK-MEL-2 melanoma): 34.4 µM
- GI50 (COLO 205 colon): 10.1 µM
- TGI (COLO 205 colon): 32.6 µM
- GI50 (A549 NSCLC): 2.33 µM
- TGI (A549 NSCLC): 7.16 µM
- GI50 (MOLT-4 leukemia): 3.17 µM
- TGI (MOLT-4 leukemia): 10.7 µM
- GI50 (LOX IMVI melanoma): 1.82 µM
- TGI (LOX IMVI melanoma): 3.53 µM
- GI50 (U251 CNS): 1.62 µM
- TGI (U251 CNS): 2.97 µM
- GI50 (UO-31 renal): 1.89 µM
- TGI (UO-31 renal): 3.88 µM
- GI50 (MDA-MB-435): 2.21 µM
- TGI (MDA-MB-435): 5.05 µM
- GI50 (SF-295 CNS): 2.58 µM
- TGI (SF-295 CNS): 7 µM
- GI50 (HL-60(TB) leukemia): 2.96 µM
- TGI (HL-60(TB) leukemia): 8.87 µM
- GI50 (ACHN renal): 2.57 µM
- TGI (ACHN renal): 6.5 µM
- GI50 (786-0 renal): 1.82 µM
- TGI (786-0 renal): 3.33 µM
